Test results as given in patent US8557831B2, “Compositions and methods for treatment and prevention of insulin resistance” (University of Florida Research Foundation, Inc., priority 2004, dated 2013).

How the values were obtained:
Male Sprague-Dawley rats [1] = experiment: Serum uric acid concentration in oxonic acid-induced hyperuricemia rat model; assay type: in vivo
Experimental: (§1) Male Sprague-Dawley rats were housed in standard conditions and fed normal diets. Hyperuricemia was induced with an uricase inhibitor, oxonic acid (OA; 750 mg/kg/day), by gavage, with control rats receiving vehicle. Allopurinol (AP) was used to block hyperuricemia by placing AP in the drinking water (150 mg/L). Rats were divided into four groups: (1) Control, (2) AP only, (3) OA only, and (4) OA+AP. Systolic blood pressure was measured using a tail-cuff sphygmomanometer. The amount of drinking water consumed and changes in body weight were noted. Rats were sacrificed at one and seven days. Serum was analyzed for uric acid concentration and nitrites/nitrates (NOx) by chemiluminescence method. (Prabhakar S S: Inhibition of mesangial iNOS by reduced extracellular pH is associated with uncoupling of NADPH oxidation. Kidney Int 61:2015-2024, 2002). Statistical analysis between subgroups was performed using ANOVA.

Male Sprague-Dawley rats [2] = experiment: Serum nitrites/nitrates (NOx) by chemiluminescence method in hyperuricemic rats; assay type: in vivo, rat
Experimental: as §1

Male Sprague-Dawley rats [3] = experiment: Systolic blood pressure by tail-cuff sphygmomanometer in hyperuricemic rats; assay type: in vivo, rat; details: 7 days, p=NS

Row | SMILES | serum uric acid (Male Sprague-Dawley rats [1]; OA+AP group (AP 150 mg/L in drinking water), 7 days) [mg/dL] | serum uric acid (Male Sprague-Dawley rats [1]; OA+AP group (AP 150 mg/L in drinking water), day 1) [mg/dL] | change in serum UA concentration (Male Sprague-Dawley rats [1]; rats treated with AP alone) | serum nitrites and nitrates (NOx) (Male Sprague-Dawley rats [2]; OA+AP group, 1 day) [µmol/L] | serum nitrites and nitrates (NOx) (Male Sprague-Dawley rats [2]; OA+AP group, 7 days) [µmol/L] | change in serum NOx concentration (Male Sprague-Dawley rats [2]; rats treated with AP alone) | serum uric acid (Male Sprague-Dawley rats [1]; OA only group, 750 mg/kg/day by gavage, 1 day) [mg/dL] | serum uric acid (Male Sprague-Dawley rats [1]; OA only group, 750 mg/kg/day by gavage, 7 days) [mg/dL] | serum nitrites and nitrates (NOx) (Male Sprague-Dawley rats [2]; OA only group, 1 day) [µmol/L] | serum nitrites and nitrates (NOx) (Male Sprague-Dawley rats [2]; OA only group, 7 days) [µmol/L] | reduction of serum nitrites and nitrates (NOx) vs. Control (Male Sprague-Dawley rats [2]; hyperuricemic (OA) rats, at both 1 day and 7 days) | systolic blood pressure (Male Sprague-Dawley rats [3]) [mm Hg]
1 | Oc1ncnc2[nH]ncc12 [AP, Allopurinol] | 0.3 ± 0.2 | 1.52 ± 0.3 | did not show a significant change | 17.4 ± 0.8 | 25.0 ± 0.8 | did not show a significant change | – | – | – | – | – | –
2 | O=C(O)c1nc(=O)[nH]c(=O)[nH]1 [OA, oxonic acid] | – | – | – | – | – | – | 1.7 ± 0.7 | 1.8 ± 0.4 | 15.6 ± 0.4 | 14.6 ± 1.1 | 40-50% | 178±18
